Results on 1 compound are retold here after patent US5998173A, “Process for producing N-acetyl-D-glucosamine” (The University of Bristish Columbia, priority 1996, dated 1999).

The term Ki denotes the dissociation constant of the complex between target and ligand, obtained from inhibition or displacement.

Each structure is given as a SMILES string.

Experiment [1] has as its system Serratia marcescens QM B1466 chitinases (total chitinase activity, EC 3.2.1.14) in culture supernatant. In words: Chitinase activity assay with pNP-(NAG)2 in the presence of increasing N-acetyl-D-glucosamine (end-product inhibition). It is filed as biochemical. Conditions: 40-mM NAG in the assay media, p-nitrophenyl substrate analog, 10 min. The protocol: (§1) FIG. 15a illustrates assays of chitinase (.box-solid.) and chitobiase (.diamond-solid.) in the presence of increasing amounts of N-acetyl-D-glucosamine (NAG). The activity values are expressed as percentage of the initial uninhibited values ([NAG]=0).
Chitinase activity was also determined by using the analog p-nitrophenyl-β-D-N,N'-diacetylchitobiose (pNP-(NAG)2) (Sigma). The assay was performed in triplicate using ELISA plates and contained 50 μL of 100 mM KH2 PO4 buffer containing 1-mM CaCl2 at pH 6.0, 50 μL of pNP(NAG)2 dissolved in nanopure water (400 μg/ml) and 20 μL of enzyme diluted in the same buffer. After 10 minutes of incubation samples were read at 405 nm using an ELISA plate reader. Blanks were used to discount any absorption due to the enzyme or pNP-(NAG)2 alone. The μmoles of p-nitrophenol released by the samples was calculated using a standard curve. Units of enzymatic activity were determined as the number of μmoles of p-nitrophenol released per minute under the assay conditions.
End-product inhibition was tested using p-nitrophenyl substrate-analogs to assay chitinase and chitobiase activities in the presence of increasing concentrations of N-acetyl-D-glucosamine (NAG). The results shown in FIG. 15a indicate that both activities in culture supernatant are inhibited by the end product (NAG). […]

Experiment [2] has as its target T1, Serratia marcescens QM B1466 chitobiase (EC 3.2.1.29) in culture supernatant (Serratia marcescens, UniProt Q54468).
T1 construct: assaying chitobiase activity in S. marcescens culture supernatant over a wide range of substrate concentrations; endogenous in cells; host or cells: Serratia marcescens QM B1466, grown on chitin; enzyme in culture supernatant, not purified
T1 sequence (Q54468 28-885): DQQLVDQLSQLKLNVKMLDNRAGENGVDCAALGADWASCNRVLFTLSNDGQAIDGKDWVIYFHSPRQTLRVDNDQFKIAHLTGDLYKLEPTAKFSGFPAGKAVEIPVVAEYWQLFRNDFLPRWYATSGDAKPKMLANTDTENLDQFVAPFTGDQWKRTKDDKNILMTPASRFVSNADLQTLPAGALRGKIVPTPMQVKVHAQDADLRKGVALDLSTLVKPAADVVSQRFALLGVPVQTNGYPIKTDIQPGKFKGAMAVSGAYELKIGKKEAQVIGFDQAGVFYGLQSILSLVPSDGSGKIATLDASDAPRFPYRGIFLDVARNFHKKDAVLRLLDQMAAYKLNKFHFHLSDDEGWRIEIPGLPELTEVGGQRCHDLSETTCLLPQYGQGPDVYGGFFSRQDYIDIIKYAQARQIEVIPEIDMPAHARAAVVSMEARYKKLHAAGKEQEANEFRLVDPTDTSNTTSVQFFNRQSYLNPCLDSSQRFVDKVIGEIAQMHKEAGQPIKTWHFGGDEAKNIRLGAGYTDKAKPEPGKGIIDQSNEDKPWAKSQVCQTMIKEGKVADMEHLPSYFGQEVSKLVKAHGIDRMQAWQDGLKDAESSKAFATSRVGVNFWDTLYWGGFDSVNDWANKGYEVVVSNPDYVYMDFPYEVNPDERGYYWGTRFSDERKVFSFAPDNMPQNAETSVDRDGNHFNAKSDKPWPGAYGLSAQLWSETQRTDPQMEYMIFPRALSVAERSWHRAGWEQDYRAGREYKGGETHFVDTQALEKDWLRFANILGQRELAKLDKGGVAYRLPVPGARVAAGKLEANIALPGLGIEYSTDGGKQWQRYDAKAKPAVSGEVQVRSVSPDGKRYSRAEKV
In words: Chitobiase activity assay with pNP-NAG in the presence of N-acetyl-D-glucosamine (end-product inhibition, Eadie-Hofstee analysis). Format: biochemical.
Description: as §1
FIG. 15b illustrates assays of chitobiase from S. marcescens crude extracts using a range of p-nitrophenyl N-acetyl-β-D-glucosaminide concentrations with or without the addition of a fixed amount of N-acetyl-D-glucosamine (NAG). (.box-solid.) 0.00 mM NAG; (.circle-solid.) 0.21 mM NAG; (Δ) 0.42 mM NAG; (.gradient.) 0.83 mM NAG; and (.diamond-solid.) 1.67 mM NAG.
Chitobiase activity was determined by measuring the amount of p-nitrophenolreleased when an aliquot of enzyme solution (culture supernatant) was incubated with an aqueous solution of p-nitrophenyl-N-acetyl-β-D-glucosamine (pNP-NAG) (Sigma). The buffer used in this assay was 85-mM Tris(hydroxymethylaminomethane)-malate, pH 7.0. […] The liberated p-nitrophenol was spectrophotometrically measured at 405 nm in an ELISA plate reader. […]
The nature of chitobiase inhibition by N-acetyl-D-glucosamine was determined by assaying chitobiase activity in S. marcescens culture supernatant over a wide range of substrate concentrations, with and without the addition of fixed amounts of N-acetyl-D-glucosamine. […]

Take `CC(=O)N[C@H]1C(O)O[C@H](CO)[C@@H](O)[C@@H]1O` (stereo partly drawn) [N-acetyl-D-glucosamine, 2-acetamido-2-deoxy-D-glucose]: the “total chitinase activity lost” value in experiment [1] came to 30%. In experiment [2] (10 min, pH 7, 40-mM NAG in the assay media, p-nitrophenyl substrate analog, culture supernatant, read-out: chitobiase activity drop), the inhibition at 40000 µM was found to be 70%. Besides, the Ki in experiment [2] (noncompetitive inhibition, substrate p-nitrophenyl N-acetyl-β-D-glucosaminide, 0-1.67 mM NAG, calculated from Eadie-Hofstee analysis, read-out: inhibition constant Ki) was 1000 µM.
